Results taken from PMC11411632 (RSC Advances, 2024).

Biological target: α-amylase
Assay: α-amylase inhibition, starch/DNSA colorimetric assay at […] nm
Type: biochemical

α-Amylase inhibition method IC50 value	SMILES
200.94 µg/mL	Cc1ccc(-c2nn(C(=O)c3ccncc3)cc2C(=O)O)cc1 [MPP, 3-(4-methylphenyl)-1-(pyridine-4-carbonyl)-1H-pyrazole-4-carboxylic acid]
122.17 µg/mL	O=C(O)c1cn(C(=O)c2ccncc2)nc1-c1ccccc1 [PPP, 3-phenyl-1-(pyridine-4-carbonyl)-1H-pyrazole-4-carboxylic acid]
